Experiments:
mdx muscles = experiment: Muscle metabolomics of mdx quadriceps; type: in vivo, mouse; details: 4 wk exposure
Experimental: Muscle metabolomics. Total hydrophilic metabolite content was extracted from quadriceps muscle tissue at treatment endpoint through methanol-water (80:20) extraction, adapting conditions described previously (Bruno et al., 2018). Briefly, total metabolite content from quadriceps muscle was obtained from approximately 100 mg (wet weight) quadriceps muscle tissue per animal. Frozen (−80° C.) muscle was pulverized in liquid nitrogen and homogenized with approximately 250 μl 2.3 mm zirconia/silica beads (Cat #11079125z, BioSpec, Bartlesville, Okla.) in 1 ml methanol/water 80:20 (vol/vol) by means of Mini-BeadBeater-16 (Cat #607, Biospec, Bartlesville, Okla.) for 1 minute. After centrifuging at 5000 rpm for 5 minutes, 200 μl of supernatant were transferred into a tube pre-added with 800 μL of ice-cold methanol/water 80% (vol/vol). Samples were vortexed for 1 minute, and then centrifuged at approximately 20,160×g for 15 minutes at 4° C. Metabolite-containing extraction solution was then dried using SpeedVac (medium power). 200 ul of 50% Acetonitrile were added to the tube for reconstitution following by overtaxing for 1 minute. Samples solution were then centrifuged for 15 minutes at 20,000 g, 4° C. Supernatant was collected for LC-MS analysis for Hydrophilic Metabolites Profiling as follows. Samples were analyzed by High-Performance Liquid Chromatography and High-Resolution Mass Spectrometry and Tandem Mass Spectrometry (HPLC-MS/MS). Specifically, system consisted of a Thermo Q-Exactive in line with an electrospray source and an Ultimate3000 (Thermo) series HPLC consisting of a binary pump, degasser, and auto-sampler outfitted with a Xbridge Amide column (Waters; dimensions of 4.6 mm×100 mm and a 3.5 μm particle size). The mobile phase A contained 95% (vol/vol) water, 5% (vol/vol) acetonitrile, 20 mM ammonium hydroxide, 20 mM ammonium acetate, pH=9.0; B was 100% Acetonitrile. […] The capillary of the ESI source was set to 275° C., with sheath gas at 45 arbitrary units, auxiliary gas at 5 arbitrary units and the spray voltage at 4.0 kV. In positive/negative polarity switching mode, an m/z scan range from 70 to 850 was chosen and MS1 data was collected at a resolution of 70,000. The automatic gain control (AGC) target was set at 1×10^6 and the maximum injection time was 200 ms. The top 5 precursor ions were subsequently fragmented, in a data-dependent manner, using the higher energy collisional dissociation (HCD) cell set to 30% normalized collision energy in MS2 at a resolution power of 17,500. The sample volumes of 25 μl were injected. Data acquisition and analysis were carried out by Xcalibur 4.0 software and Tracefinder 2.1 software, respectively (both from Thermo Fisher Scientific). Metabolite levels were analyzed as peak area normalized to wet tissue weight and total […] content. Gene-metabolite pathway enrichment was conducted using the MetaboAnalyst platform (v4.0; Joint Pathway Analysis mode) (Chong et al., 2018). Pulsatile glucocorticoid exposure enhanced mitochondrial respiration in dystrophic muscle through BCAA. […] This correlated with increased catabolism of BCAAs, seen as reduced levels of precursors and intermediates and increased levels of oxoglutarate and succinate in the TCA cycle (FIG. 1B, center). […] Opposing shifts were confirmed by HPLC analyses of muscle ATP and NAD^+and by resting blood lactate (FIGS. 5A and 5B), and these changes correlated with parallel shifts in muscle glycogen content (FIG. 5C).

mdx mice = experiment: Morbidity, muscle mass, muscle function, plethysmography, echocardiography, mdx mice, 40 weeks; type: in vivo, mouse; details: weekly prednisone
Experimental: Histology. Excised tissues (muscles, omental fat, heart) were placed in 10% formaldehyde (Cat #245-684; Fisher Scientific, Waltham, Mass.) for histologic processing. Seven μm sections from the center of paraffin-embedded muscles were stained with hematoxylin and eosin (H&E; cat #12013B, 1070C; Newcomer Supply, Middleton, Wis.) and Masson's trichrome (Cat #HT-15; Sigma-Aldrich; St. Louis, Mo.). Myofiber/adipocyte CSA quantitation was conducted on 400 myofibers/adipocytes per tissue per mouse. Imaging was performed using a Zeiss Axio Observer A1 microscope, using 10× and 20× (short-range) objectives. Brightfield pictures were acquired via Gryphax software (version 1.0.6.598; Jenoptik, Jena, Germany). Area quantitation was performed by means of ImageJ (Schneider et al., 2012). Sample processing, imaging and CSA quantitation were conducted blinded to treatment groups.
Muscle function, whole-body plethysmography, echocardiography. Forelimb grip strength was monitored using a meter (Cat #1027SM; Columbus Instruments, Columbus, Ohio) blinded to treatment groups. Animals performed ten pulls with 5 seconds rest on a flat surface between pulls. Immediately before sacrifice, in situ tetanic force from tibialis anterior muscle was measured using a Whole Mouse Test System (Cat #1300A; Aurora Scientific, Aurora, ON, Canada) with a 1N dual-action lever arm force transducer (3000-LR, Aurora Scientific, Aurora, ON, Canada) in anesthetized animals (0.8 I/min of 1.5% isoflurane in 100% O2). […] Time of contraction was assessed as time to max tetanic value within the 0.0-0.5 sec range of each tetanic contraction, while time of relaxation was assessed as time to 90% min tetanic value within the 0.5-0.8 sec range of every tetanus. […] Data was recorded for a total of 15 minutes broken into 3 consecutive 5-minute periods. […] Cardiac function was assessed by echocardiography, which was conducted under anesthesia (0.8 L/min of 1.5% vaporized isoflurane in 100% O2) on mice between 2 and 5 days before sacrifice. […]

C[C@]12C=CC(=O)C=C1CC[C@@H]1[C@@H]2C(=O)C[C@@]2(C)[C@H]1CC[C@]2(O)C(=O)CO [prednisone, Prednisone]
BCAA and glucose catabolism (mdx muscles; daily prednisone): substantial impairment
NAD+ and NADH in muscle (mdx muscles; daily prednisone): loss
Glycolysis (levels of pyruvate and lactate) (mdx muscles; weekly prednisone): increased
catabolism of BCAAs (mdx muscles; weekly prednisone): increased
ATP, phosphocreatine, and NAD+ in muscle (mdx muscles; weekly prednisone, vs vehicle): increased
morbidity (mdx mice; mdx male mice, 40 weeks from 6 weeks of age): improved
muscle mass and force (mdx mice; mdx mice, 40 weeks): increased
performance of limb muscles, respiratory muscles, and heart (mdx mice; mdx mice, 40 weeks): improved

— patent US20220062299A1, “USE OF GLUCOCORTICOID STEROIDS IN PREVENTING AND TREATING CONDITIONS OF MUSCLE WASTING, AGING AND METABOLIC DISORDER” (NORTHWESTERN UNIVERSITY, priority 2018, published 2022)
